Experimental data published in US10485808B2, “Selective progesterone receptor modulators (SPRM) and stabilized estrogen level in patient” (BAYER PHARMA AKTIENGESELLSCHAFT, priority 2017, dated 2019).

How the values were obtained:
Assay type in all cases: in vivo, human
[1] = tested on: women diagnosed with uterine fibroids; experiment: Study 15788: estradiol concentrations in serum, 1x12 weeks treatment
Procedure: Example 4: Clinical Study in Women Diagnosed with Uterine Fibroids During a 1×12 Weeks/84 Days Treatment with Compound 1
Study protocol (N^o 15788):
Doses: 0.5 mg, 1 mg, 2 mg, or 4 mg once daily
(§1) Route of administration: Oral
Duration of treatment: 1×12 weeks (84 days)
Women, 18 to 50 years old, with uterine fibroids documented by transvaginal or abdominal ultrasound at screening with at least 1 uterine fibroid with largest diameter 3 cm and Heavy Menstrual Bleeding (HMB) 80 mL were eligible for enrolment in the study.
(§2) Following screening visit 1 (Visit 1), there was a screening period of up to 90 days to arrange for complete results of all baseline assessments. […] Every effort was made to keep the duration of the screening period to a minimum.
Eligible subjects were equally randomized to one of the treatment groups (Placebo, 0.5 mg, 1 mg, 2 mg, or 4 mg Compound 1). Treatment was started during the first week of the menstrual cycle following randomization. The treatment period consisted of 12 weeks (84 days) of daily tablet intake.
In this study, estradiol levels were measured • At the End of Treatment (EoT) visit and • Randomization visit 3.

[2] = tested on: women diagnosed with uterine fibroids; experiment: Study 17541/A1: estradiol concentrations in serum, 1x24 weeks treatment; conditions: for Estradiol concentrations in serum, Max / Estradiol concentrations in serum, Mean / Estradiol concentrations in serum, Median / Estradiol concentrations in serum, Min: Cp1 2 mg once daily oral
Procedure: Example 6: Clinical Study in Women Diagnosed with Uterine Fibroids During a 1×24 Weeks Treatment with Compound 1
Study protocol (N^o 17541/A1):
as §1
Duration of treatment: 1×24 weeks
Women, 18 to 50 years old, with uterine fibroids documented by transvaginal or abdominal ultrasound at screening with at least 1 uterine fibroid with largest diameter >3 cm and Heavy Menstrual Bleeding (HMB)>80 mL were eligible for enrolment in the study.
as §2
Eligible subjects were equally randomized to treatment 2 mg of Compound 1. Treatment was started during the first week of the menstrual cycle following randomization. The treatment period consisted of 24 weeks of daily tablet intake.
In this study, estradiol levels were measured • Treatment Visit 3 (corresponding to the end of 12 weeks treatment), • Treatment Visit 6 (corresponding to the end of 24 weeks treatment).

[3] = tested on: women diagnosed with uterine fibroids; experiment: Study 17541/A1: hot flush events during treatment; conditions: Cp1 2.0 mg once daily oral, 24 weeks
Text: Example 7: Hot Flush Events in Study Subject Treated with Compound 1 (Cp1)
See full study description in Example 6.
Hot flush events were reported and monitored during treatment.

[4] = Cp1 0.5 mg once daily oral, End of Treatment (12 weeks)
[5] = Cp1 0.5 mg once daily oral, Randomization
[6] = Cp1 1 mg once daily oral, End of Treatment (12 weeks)
[7] = Cp1 1 mg once daily oral, Randomization
[8] = Cp1 2 mg once daily oral, End of Treatment (12 weeks)
[9] = Cp1 2 mg once daily oral, Randomization
[10] = Cp1 4 mg once daily oral, End of Treatment (12 weeks)
[11] = Cp1 4 mg once daily oral, Randomization
[12] = Treatment Visit 3 (end of 12 weeks treatment)
[13] = Treatment Visit 6 (end of 24 weeks treatment)

C[C@]12C[C@H](c3ccc(S(C)(=O)=O)cc3)C3=C4CCC(=O)C=C4CC[C@H]3[C@@H]1CC[C@@]2(O)C(F)(F)C(F)(F)F [Compound 1, (11β,17β)-17-Hydroxy-11-[4-(methylsulphonyl)phenyl]-17-(pentafluoroethyl)estra-4,9-dien-3-one]
Estradiol levels under treatment compared to baseline ([1]; 0.5-4 mg once daily, 12 weeks): moderately suppressed | Safety concerns from the data analysed ([1]; 0.5-4 mg once daily, 12 weeks): no safety concerns were identified | Estradiol concentrations in serum, Max [1, 4]: 357.5 pg/mL | Estradiol concentrations in serum, Mean [1, 4]: 97.3 pg/mL | Estradiol concentrations in serum, Median [1, 4]: 56.9 pg/mL | Estradiol concentrations in serum, Min [1, 4]: 8.3 pg/mL | Estradiol concentrations in serum, Max [1, 5]: 318.6 pg/mL | Estradiol concentrations in serum, Mean [1, 5]: 115.78 pg/mL | Estradiol concentrations in serum, Median [1, 5]: 100.2 pg/mL | Estradiol concentrations in serum, Min [1, 5]: 7.1 pg/mL | Estradiol concentrations in serum, Max [1, 6]: 384.9 pg/mL | Estradiol concentrations in serum, Mean [1, 6]: 72.85 pg/mL | Estradiol concentrations in serum, Median [1, 6]: 50 pg/mL | Estradiol concentrations in serum, Min [1, 6]: 11.8 pg/mL | Estradiol concentrations in serum, Median ([1]; Cp1 1 mg once daily oral, End of Treatment (12 weeks), listed as Cp1): 50.1 pg/mL | Estradiol concentrations in serum, Max [1, 7]: 490.2 pg/mL | Estradiol concentrations in serum, Mean [1, 7]: 120.72 pg/mL | Estradiol concentrations in serum, Median [1, 7]: 103.65 pg/mL | Estradiol concentrations in serum, Min [1, 7]: 21.5 pg/mL | Estradiol concentrations in serum, Max [1, 8]: 433.9 pg/mL | Estradiol concentrations in serum, Mean [1, 8]: 76.23 pg/mL | Estradiol concentrations in serum, Median [1, 8]: 50 pg/mL | Estradiol concentrations in serum, Min [1, 8]: 10.5 pg/mL | Estradiol concentrations in serum, Median ([1]; Cp1 2 mg once daily oral, End of Treatment (12 weeks), listed as Cp1): 49.95 pg/mL | Estradiol concentrations in serum, Max [1, 9]: 407.8 pg/mL | Estradiol concentrations in serum, Mean [1, 9]: 111.25 pg/mL | Estradiol concentrations in serum, Median [1, 9]: 96.6 pg/mL | Estradiol concentrations in serum, Min [1, 9]: 6.7 pg/mL | Estradiol concentrations in serum, Max [1, 10]: 255.3 pg/mL | Estradiol concentrations in serum, Mean [1, 10]: 56.51 pg/mL | Estradiol concentrations in serum, Median [1, 10]: 39 pg/mL | Estradiol concentrations in serum, Min [1, 10]: 9.5 pg/mL | Estradiol concentrations in serum, Median ([1]; Cp1 4 mg once daily oral, End of Treatment (12 weeks), listed as Cp1): 38.7 pg/mL | Estradiol concentrations in serum, Max [1, 11]: 347.6 pg/mL | Estradiol concentrations in serum, Mean [1, 11]: 117.05 pg/mL | Estradiol concentrations in serum, Median [1, 11]: 101.7 pg/mL | Estradiol concentrations in serum, Min [1, 11]: 6.8 pg/mL | Mean estradiol values after the EoT ([1]; all Doses, data not shown): returned to baseline levels | Estradiol levels under treatment compared to baseline ([2]; 2 mg once daily, 24 weeks): moderately suppressed | Safety concerns from the data analysed ([2]; 2 mg once daily, 24 weeks): no safety concerns were identified | Estradiol concentrations in serum, Max ([2]; Baseline): 644.2 pg/mL | Estradiol concentrations in serum, Mean ([2]; Baseline): 135.97 pg/mL | Estradiol concentrations in serum, Median ([2]; Baseline): 93.55 pg/mL | Estradiol concentrations in serum, Min ([2]; Baseline): 29.4 pg/mL | Estradiol concentrations in serum, Max [2, 12]: 557.5 pg/mL | Estradiol concentrations in serum, Mean [2, 12]: 77.46 pg/mL | Estradiol concentrations in serum, Median [2, 12]: 47.50 pg/mL | Estradiol concentrations in serum, Min [2, 12]: 11.0 pg/mL | Estradiol concentrations in serum, Max [2, 13]: 132.5 pg/mL | Estradiol concentrations in serum, Mean [2, 13]: 44.69 pg/mL | Estradiol concentrations in serum, Median [2, 13]: 42.50 pg/mL | Estradiol concentrations in serum, Min [2, 13]: 7.9 pg/mL | Mean estradiol values after the EoT ([2]; data not shown): returned to baseline levels | Hot flush events, Events (%) [3]: no more than 11.4% | Hot flush events, Events (%) ([3]; listed as Cp1): 11.4%
